Reference: PMC10877564, “Activity of Gut-Derived Nisin-like Lantibiotics against Human Gut Pathogens and Commensals” (ACS Chemical Biology, 2024)
No end group written: not given here.

How the values were obtained:
[1] = system: panel of Gram-positive human pathogens (VRE, MRSA, MRSE, L. monocytogenes, C. difficile); assay: MIC assay against the panel of Gram-positive human pathogens; format: cell-based; details: pathogen panel, Figure 3A-E; anaerobic
Excerpt: Next, we set out to test the antimicrobial activities of these purified lantibiotics against a panel of Gram-positive bacteria that are representatives of some of the most prevalent human pathogens: VRE, Methicillin-resistant S. aureus USA300 (MRSA), Methicillin-resistant Staphylococcus epidermidis SK135 (MRSE), Listeria monocytogenes 10403S, and Clostridioides difficile VPI10463. We examined the growth of bacteria in a 96-well plate under a concentration gradient of lantibiotics under anaerobic conditions (Figure S2B).
(§1) Elution Buffer (4 M guanidine hydrochloride, 20 mM Tris HCl, pH 7.5 at 25 °C, 100 mM NaCl, 1 M imidazole). Peptides eluted from the Ni resin were concentrated and desalted using 3 kDa Amicon filters (Millipore). For leader peptide removal, the peptide (1:20 trypsin to peptide) was incubated with the trypsin protease in 50 mM Tris-HCl, pH 8 overnight at 37 °C. Lastly, the core peptides were further purified with HPLC using an Agilent 1200 instrument (Agilent) as specified in general methods. About 1.5 mg recombinant peptide was obtained after HPLC purification per […]
Purification of blauticin from Blautia producta SCSK
Stationary anaerobic culture of BPSCSK was inoculated 1:100 to 1 L BHIS. Culture was incubated on a heating plate at 37 °C with 220 rpm stirring for 2 days in an anaerobic chamber. Bacteria were pelleted with 15,000 x g centrifugation for 15 min. The supernatant was acidified with acetic acid to pH 5.5 and filtered through a 0.22 um filter. Filtered supernatant was loaded onto a HiTrap SP HP column using an AKTA Pure FPLC, which was eluted sequentially with 3 CV of distilled water, 200 mM NaCl, 400 mM NaCl, 600 mM NaCl, 800 mM NaCl, and 1 M NaCl. The 800 mM NaCl eluate was concentrated with a 3 kDa Amicon filter, followed by dialyzation with DPBS using a 3 kDa Amicon filter. Purification of blauticin was confirmed by SDS-PAGE, VRE inhibition in vitro assay, and MALDI-TOF MS. […]
(§2) For broth cultures, isolates were grown in pre-reduced BHI supplemented with 5 g/L yeast extract (Difco, BD) and 0.1% L-cysteine under anaerobic condition.
(§3) Minimal Inhibition Concentration (MIC) assay
(§4) All MIC assays were performed under anaerobic condition. Stationary bacterial culture in BHIS (BHI supplemented with 5 g/L yeast extract and 0.1% L-cysteine) were inoculated 1:100 to wells containing 200 µL BHIS in U-bottom 96-well plates. Lantibiotics were dissolved in DPBS, and concentrations were determined by BCA assay (Pierce) according to the manufacturer’s protocol.
Lantibiotic stock solutions were added to wells to reach desired final concentration, with 3-fold serial dilution across rows to create concentration gradients. Bacteria-inoculated wells without lantibiotics served as control. […]

[2] = Liposome permeabilization assay, liposomes with lipid II; format: biochemical; details: 375 nM lantibiotic; DOPC with 0.1 mol% lipid II, 50 µM phospholipid; pyranine fluorescence, 30 min, room temperature; three replicates; Figure S7B
Experimental: (§5) To further investigate the mechanisms of action of these nisin-like lantibiotics, we performed liposome permeabilization assays using liposomes with or without lipid II (Figure S7).
(§6) Liposome Permeabilization Assay
(§7) To prepare pyranine encapsulated liposomes, DOPC (25 mg/mL in CHCl3, purchased from Avanti) was deposited into a vial and mixed with lipid II (dissolved in 2:1 CHCl3: MeOH, prepared chemoenzymatically).6 The solvent was removed using a stream of N2 leaving a thin film. Residual solvent was removed by storing it overnight in a vacuum desiccator. The film was rehydrated in buffer (5 mM Tricine, 5 mM MES, 5 mM NaCl, 1 mM pyranine pH = 6.0) and suspended with vortexing. The suspension was subjected to freeze-thaw three times before extrusion through a […] polycarbonate filter (21 passes). Excess pyranine was removed by passing the liposome solution through a Sephadex G-50 column previously equilibrated with buffer (5 mM Tricine, 5 mM MES, 5 mM NaCl, pH = 6.0). The eluted liposome solution containing the highest concentration of encapsulated pyranine (as determined visually with a UV lamp) was immediately placed on ice. Phospholipid concentration was determined by NMR as described previously.7 To measure liposome permeabilization, to a 96 well black polystyrene plate was added buffer (5 mM Tricine, 5 mM MES, 5 mM NaCl, pH = 8.0; 97 µL) and liposome solution (3 µL; 50 µM phospholipid concentration during assay). The wells were allowed to equilibrate for 8 min at room temperature then antibiotic was added. The antibiotic concentration in each well was 375 nM.
(§8) Pyranine fluorescence was monitored for 30 min then Triton X-100 was added to a final concentration of 0.1% and pyranine fluorescence was monitored for an additional 5 min. The pyranine fluorescence signal was max-min normalized. […]
(§9) Fig. S7 Liposome permeabilization assays of nisin-like lantibiotics. (A) Scheme of liposome […]
(§10) low fluorescence. Fluorescence increases upon liposome permeabilization and pH increase . (B) Fraction of liposomes permeabilized by lantibiotics (375 nM). Liposomes were composed of DOPC with or without 0.1 mol% lipid II. Error bars represent the standard of deviation of three […]
(§11) (1 picture or pasted object on this page, not shown here)

[3] = system: Coprococcus eutactus MSK.18.32; assay: MIC assay, anaerobic broth dilution; format: cell-based; details: SAR study blauticin versus nisin O, Figure 4
Excerpt: (§12) Antibiotic treatment may result in collateral damage to commensal bacteria in the human microbiome, leading to dysbiosis and susceptibility to various diseases.[44] How lantibiotics impact Gram-positive commensals from the human gut has remained unclear. Therefore, we performed antimicrobial activity tests of these lantibiotics against selected Gram-positive human gut commensals, most of which belong to the Lachnospiraceae family, one of the most abundant bacterial families in the human gut.[27] In general, human gut commensals were more susceptible to the set of investigated lantibiotics compared to pathogens (Figure 3).
as §1
(§13) All MIC assays were performed under anaerobic condition. […] Lantibiotics were dissolved in DPBS, and concentrations were determined by BCA assay (Pierce) according to the manufacturer’s protocol. […]

[4] = Liposome permeabilization assay, liposomes without lipid II; format: biochemical; details: 375 nM lantibiotic; DOPC, 50 µM phospholipid; pyranine fluorescence, 30 min; three replicates; Figure S7
Experimental: as §5, §6, §7, §8, §9, §10, §11

[5] = system: C. comes MSK.11.23; assay: MIC assay, anaerobic broth dilution; format: cell-based, Coprococcus comes; details: Figure 3; anaerobic MIC assay
Excerpt: as §12, with “3). […]” for “3).”
Isolation of human gut commensal bacteria
Isolation and growth of commensal bacteria was done as previously reported.5 Briefly, fresh donor fecal samples were transferred into an anaerobic chamber (Coy Labs) within 1 h of collection. The anaerobic chamber was maintained using a gas mix consisting of 5% hydrogen, 5% carbon dioxide and 90% nitrogen, and hydrogen was maintained at ~3.0% using an anaerobic gas infuser. Fecal samples were resuspended in pre-reduced PBS and plated on Columbia blood agar or brain-heart infusion (BHI – Difco, BD) agar plates in three serial 10-fold dilutions and incubated at 37 °C for 48 – 96 h. Isolated colonies were re-streaked for purity onto Columbia blood agar and frozen in pre-reduced 10% glycerol in PBS.
as §2, §3, §4
Lantibiotic stock solutions were added to wells to reach desired final concentration, with 3-fold serial dilution across rows to create concentration gradients. Bacteria-inoculated wells without lantibiotics served as control. Plates were incubated at 37 °C for 48 h before being taken out of the anaerobic chamber for centrifugation. Plates were imaged with an iBright 1500 imager […]
pellets than those without lantibiotics were identified as MIC.

[6] = system: selected Gram-positive human gut commensals; assay: MIC assay against the panel of Gram-positive human gut commensals; format: cell-based; details: commensal panel, Figure 3F-M; anaerobic
Excerpt: as §12, §1, §13

Substance | inhibitory activity against pathogens based on MIC (ranking in words) [1] | permeabilization of lipid II-containing liposomes (in words) [2] | inhibition (MIC) of C. eutactus, comparison in words [3] | permeabilization of liposomes without lipid II compared to liposomes with lipid II (in words) [4] | sensitivity of C. comes MSK.11.23 to the lantibiotic (in words) [5] | antimicrobial activity against human gut commensals (ranking in words) [6]
MAKFDDFDLDVTKTAAGEGGVEPRITSKSLCTPGCVTGILMTCPVQTATCGCQITGK (also: bicyclic or more (positions not given here)) [blauticin, class I lantibiotic of Blautia producta SCSK, heterologously produced in E. coli in mixed dehydration states] | intermediate activities | strongly induced permeabilization | lower MIC than nisin O | decreased permeabilization activities | – | –
MAKFDDFDLDVTKTAAQGGIEPKYKSKSVCTPGCPTGILMTCPLKTATCGCHITGK (also: bicyclic or more (positions not given here)) [Lan-Df, novel nisin-like class I lantibiotic from Dorea formicigenerans, close homologue of nisin O] | strongest inhibitory activities | strongly induced permeabilization | – | decreased permeabilization activities | relatively resistant | generally more effective in growth inhibition
nisin O | nisin A and Lan-Df had the strongest inhibitory activities against pathogens based on their MIC, followed by nisin O | strongly induced permeabilization | – | decreased permeabilization activities | relatively resistant | –
